Tests used:
Test in all cases: glycosidase inhibition assay
Conditions in all cases: read-out: % inhibition at 1 mM
[1] = target: T1, α-D-glucosidase from Bacillus stearothermophilus (Geobacillus stearothermophilus, UniProt A0ACH1E9U3)
T1 construct: gene QSJ10_02665
T1 sequence (A0ACH1E9U3 1-555): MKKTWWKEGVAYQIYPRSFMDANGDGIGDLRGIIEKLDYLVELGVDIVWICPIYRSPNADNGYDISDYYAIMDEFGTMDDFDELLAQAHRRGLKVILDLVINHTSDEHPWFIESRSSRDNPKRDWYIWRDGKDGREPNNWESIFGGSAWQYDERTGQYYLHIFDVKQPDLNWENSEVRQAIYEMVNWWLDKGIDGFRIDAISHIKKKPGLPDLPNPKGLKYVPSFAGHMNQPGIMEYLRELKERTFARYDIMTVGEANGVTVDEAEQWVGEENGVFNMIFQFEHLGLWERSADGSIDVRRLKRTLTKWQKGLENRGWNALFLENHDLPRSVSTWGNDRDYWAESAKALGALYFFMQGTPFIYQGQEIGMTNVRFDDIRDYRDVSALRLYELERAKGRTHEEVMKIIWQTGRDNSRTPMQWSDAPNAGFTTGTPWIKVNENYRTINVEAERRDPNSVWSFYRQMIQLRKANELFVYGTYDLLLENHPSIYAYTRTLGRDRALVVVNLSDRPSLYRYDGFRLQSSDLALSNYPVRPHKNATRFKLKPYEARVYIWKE

[2] = target: T2, α-L-fucosidase from bovine kidney (Bos taurus, UniProt Q2KIM0); format: biochemical
T2 construct: gene FUCA1; commercial native enzyme from kidney
T2 sequence (Q2KIM0 23-468): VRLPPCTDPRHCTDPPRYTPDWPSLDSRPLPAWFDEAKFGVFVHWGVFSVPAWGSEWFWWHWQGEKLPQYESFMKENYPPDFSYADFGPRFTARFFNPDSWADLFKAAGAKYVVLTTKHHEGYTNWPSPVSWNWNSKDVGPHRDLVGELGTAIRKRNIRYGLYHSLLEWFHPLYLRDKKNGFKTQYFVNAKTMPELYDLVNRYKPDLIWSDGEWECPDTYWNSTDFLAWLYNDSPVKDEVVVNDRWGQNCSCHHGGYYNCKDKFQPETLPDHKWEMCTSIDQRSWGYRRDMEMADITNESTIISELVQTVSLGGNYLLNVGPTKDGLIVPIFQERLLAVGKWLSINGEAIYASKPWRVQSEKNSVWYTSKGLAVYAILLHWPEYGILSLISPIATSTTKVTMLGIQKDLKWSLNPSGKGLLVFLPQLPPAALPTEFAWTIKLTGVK
Description: glycosidase inhibition assay on α-L-fucosidase from bovine kidney

[3] = target: T3, α-D-mannosidase from Jack beans (Canavalia ensiformis, UniProt C0HJB3); format: biochemical
T3 construct: commercial native enzyme preparation
T3 sequence (C0HJB3 1-562): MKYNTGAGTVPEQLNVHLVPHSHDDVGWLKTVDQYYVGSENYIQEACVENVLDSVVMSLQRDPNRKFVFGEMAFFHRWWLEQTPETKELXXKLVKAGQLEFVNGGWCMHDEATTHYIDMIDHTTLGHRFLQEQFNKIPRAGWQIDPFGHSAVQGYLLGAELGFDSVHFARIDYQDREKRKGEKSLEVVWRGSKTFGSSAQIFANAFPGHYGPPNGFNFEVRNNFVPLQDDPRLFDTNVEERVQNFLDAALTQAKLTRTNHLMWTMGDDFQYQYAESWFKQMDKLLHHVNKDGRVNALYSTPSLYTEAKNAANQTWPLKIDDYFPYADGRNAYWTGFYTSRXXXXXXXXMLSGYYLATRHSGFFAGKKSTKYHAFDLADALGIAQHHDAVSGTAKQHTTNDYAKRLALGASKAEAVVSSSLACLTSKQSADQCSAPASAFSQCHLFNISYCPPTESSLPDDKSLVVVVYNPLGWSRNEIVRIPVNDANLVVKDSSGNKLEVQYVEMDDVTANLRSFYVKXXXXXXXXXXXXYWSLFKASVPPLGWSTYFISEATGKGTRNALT
T3 sequence (C0HJB3 563-981): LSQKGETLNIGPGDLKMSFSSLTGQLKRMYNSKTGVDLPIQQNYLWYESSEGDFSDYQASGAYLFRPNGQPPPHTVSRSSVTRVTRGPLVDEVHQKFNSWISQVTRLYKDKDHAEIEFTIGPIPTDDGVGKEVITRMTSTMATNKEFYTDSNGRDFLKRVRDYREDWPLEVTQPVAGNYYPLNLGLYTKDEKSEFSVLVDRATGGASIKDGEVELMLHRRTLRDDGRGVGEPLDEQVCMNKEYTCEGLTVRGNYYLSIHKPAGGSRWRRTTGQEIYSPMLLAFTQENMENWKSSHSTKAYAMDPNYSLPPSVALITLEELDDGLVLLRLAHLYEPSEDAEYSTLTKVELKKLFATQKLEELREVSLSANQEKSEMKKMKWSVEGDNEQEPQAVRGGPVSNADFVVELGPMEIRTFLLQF
Description: glycosidase inhibition assay on α-D-mannosidase from Jack beans

[4] = target: T4, amyloglucosidase from Aspergillus niger (Aspergillus niger, UniProt P69328); format: biochemical
T4 construct: gene GLAA; commercial native enzyme preparation
T4 sequence (P69328 25-640): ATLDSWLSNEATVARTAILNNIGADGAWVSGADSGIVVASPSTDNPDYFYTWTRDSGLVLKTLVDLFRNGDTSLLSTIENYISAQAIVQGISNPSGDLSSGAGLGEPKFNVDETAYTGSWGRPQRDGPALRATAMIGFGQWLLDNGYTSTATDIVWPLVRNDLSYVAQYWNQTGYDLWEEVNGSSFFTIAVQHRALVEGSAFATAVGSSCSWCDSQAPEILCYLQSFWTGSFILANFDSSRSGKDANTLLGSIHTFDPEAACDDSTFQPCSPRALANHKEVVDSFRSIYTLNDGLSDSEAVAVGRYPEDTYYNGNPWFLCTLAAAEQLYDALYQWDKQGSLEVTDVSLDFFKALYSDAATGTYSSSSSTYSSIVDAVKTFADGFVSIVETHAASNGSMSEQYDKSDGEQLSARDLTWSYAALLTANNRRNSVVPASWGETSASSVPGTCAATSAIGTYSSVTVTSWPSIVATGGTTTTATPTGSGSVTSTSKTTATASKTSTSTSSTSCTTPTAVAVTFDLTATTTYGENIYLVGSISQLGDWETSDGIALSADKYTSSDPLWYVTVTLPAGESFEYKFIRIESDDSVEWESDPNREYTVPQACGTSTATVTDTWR
Description: glycosidase inhibition assay on amyloglucosidase from Aspergillus niger

inhibition at 1000 µM [2] | Compound | inhibition at 1000 µM [1] | inhibition at 1000 µM [3] | inhibition at 1000 µM [4]
14% | O[C@H]1[C@H](O)[C@@H](O)C[C@H](O)[C@H](O)C[C@@H]1O [compound 5, C8 hexa-substituted carbasugar 5] | 9% |  | 
13% | O[C@H]1[C@H](O)[C@H](O)C[C@H](O)[C@H](O)C[C@H]1O [compound 6, C8 hexa-substituted carbasugar 6] |  |  | 
 | N[C@H]1C[C@H](O)[C@@H](O)[C@H](O)[C@@H](O)C[C@@H]1O [compound 15, aminocyclitol 15] |  | 16% | 28%
 | N[C@@H]1C[C@@H](O)[C@@H](O)[C@H](O)[C@H](O)C[C@H]1O [compound 16, aminocyclitol 16] |  | 8% | 
 | OCC(CO)N[C@H]1C[C@H](O)[C@@H](O)[C@H](O)[C@@H](O)C[C@@H]1O [compound 19, C8-voglibose mimetic 19] |  | 10% | 27%
 | OCC(CO)N[C@@H]1C[C@@H](O)[C@@H](O)[C@H](O)[C@H](O)C[C@H]1O [compound 20, aminocyclitol 20] | 6% | 8% | 29%
